From ChEMBL document CHEMBL4038308, “Lipophosphonoxins II: Design, Synthesis, and Properties of Novel Broad Spectrum Antibacterial Agents” (J Med Chem, 2017)
Values after ≈ are worked out from the molar mass of the structure shown. Active and inactive are the calls of the source. No cut-off for these calls is given here.

Legend:
Bacillus subtilis [1] = assay: Antibacterial activity against Bacillus subtilis assessed as inhibition of peptidoglycan synthesis at 2 mg/L after 50 mins by [3H]-N-acetylglucosamine incorporation assay; assay type: functional
Bacillus subtilis [2] = assay: Antibacterial activity against Bacillus subtilis assessed as inhibition of RNA synthesis at 2 mg/L after 50 mins by [3H]-uridine incorporation assay; assay type: functional
Bacillus subtilis [3] = assay: Antibacterial activity against Bacillus subtilis assessed as inhibition of protein synthesis at 2 mg/L after 50 mins by [35S]-methionine incorporation assay; assay type: functional
Bacillus subtilis [4] = assay: Antibacterial activity against Bacillus subtilis assessed as inhibition of plasma membrane lipids synthesis at 2 mg/L after 50 mins by [3H]-sodium acetate incorporation assay; assay type: functional
Bacillus subtilis [5] = assay: Antibacterial activity against Bacillus subtilis assessed as inhibition of DNA synthesis at 2 mg/L after 50 mins by [3H]thymidine incorporation assay; assay type: functional
Enterococcus faecalis = assay: Antibacterial activity against Enterococcus faecalis CCM 4224 after 24 hrs by microdilution method; assay type: functional; details: CCM 4224, 24 h
Burkholderia multivorans = assay: Antibacterial activity against Burkholderia multivorans after 24 hrs by microdilution method; assay type: functional
Escherichia coli [6] = assay: Antibacterial activity against Escherichia coli 16702 after 24 hrs by microdilution method; assay type: functional; details: Escherichia coli, 16702, 24 h
[7] = system: Stenotrophomonas maltophilia; assay: Antibacterial activity against Stenotrophomonas maltophilia S2-23 after 24 hrs by microdilution method; assay type: functional; details: S2-23, 24 h
Salmonella enteritidis = assay: Antibacterial activity against Salmonella enteritidis S2-25 after 24 hrs by microdilution method; assay type: functional, Salmonella enterica subsp. enterica serovar Enteritidis; details: Salmonella enterica, S2-25, 24 h
Staphylococcus aureus [8] = assay: Antibacterial activity against Staphylococcus aureus CCM 4223 after 24 hrs by microdilution method; assay type: functional; details: CCM 4223, 24 h
Pseudomonas aeruginosa [9] = assay: Antibacterial activity against Pseudomonas aeruginosa 16575 after 24 hrs by microdilution method; assay type: functional; details: Pseudomonas aeruginosa, 16575, 24 h
Pseudomonas aeruginosa [10] = assay: Antibacterial activity against Pseudomonas aeruginosa CCM 3955 after 24 hrs by microdilution method; assay type: functional; details: CCM 3955, 24 h
Bacillus subtilis [11] = assay: Antibacterial activity against Bacillus subtilis after 24 hrs by microdilution method; assay type: functional
Escherichia coli [12] = assay: Antibacterial activity against Escherichia coli CCM 3954 after 24 hrs by microdilution method; assay type: functional; details: CCM 3954, 24 h
Acinetobacter baumannii = assay: Antibacterial activity against Acinetobacter baumannii A3-08 after 24 hrs by microdilution method; assay type: functional; details: A3-08, 24 h
Streptococcus agalactiae = assay: Antibacterial activity against Streptococcus agalactiae after 24 hrs by microdilution method; assay type: functional
Staphylococcus aureus [13] = assay: Antibacterial activity against methicillin-resistant Staphylococcus aureus 4591 clinical isolates after 24 hrs by microdilution method; assay type: functional; details: Staphylococcus aureus, 4591, 24 h
Enterococcus faecium = assay: Antibacterial activity against vancomycin-resistant Enterococcus faecium 419/ana clinical isolates after 24 hrs by microdilution method; assay type: functional
[14] = system: Staphylococcus haemolyticus; assay: Antibacterial activity against fluoroquinolne-resistant Staphylococcus haemolyticus 16568 after 24 hrs by microdilution method; assay type: functional; details: Staphylococcus haemolyticus, 16568, 24 h
[15] = system: Staphylococcus epidermidis; assay: Antibacterial activity against Staphylococcus epidermidis 8700/B after 24 hrs by microdilution method; assay type: functional
[16] = Pore forming activity across black lipid bilayer membranes assessed as induction of variation in membrane current by measuring pore conductance at 5 ug/ml

Compound	MIC (Enterococcus faecalis) [µg/mL]	MIC (Burkholderia multivorans) [µg/mL]	MIC (Escherichia coli [6]) [µg/mL]	MIC [7] [µg/mL]	MIC (Salmonella enteritidis) [µg/mL]	MIC (Staphylococcus aureus [8]) [µg/mL]	MIC (Pseudomonas aeruginosa [9]) [µg/mL]	MIC (Pseudomonas aeruginosa [10]) [µg/mL]	MIC (Bacillus subtilis [11]) [µg/mL]	MIC (Escherichia coli [12]) [µg/mL]	MIC (Acinetobacter baumannii) [µg/mL]	MIC (Streptococcus agalactiae) [µg/mL]	MIC (Staphylococcus aureus [13]) [µg/mL]	MIC (Enterococcus faecium) [µg/mL]	MIC [14] [µg/mL]	MIC [15] [µg/mL]	also measured
CO[C@H]1/C=C/O[C@@]2(C)Oc3c(C)c(O)c4c(O)c(c(/C=N/N5CCN(C)CC5)c(O)c4c3C2=O)NC(=O)/C(C)=C\C=C\[C@H](C)[C@H](O)[C@@H](C)[C@@H](O)[C@@H](C)[C@H](OC(C)=O)[C@@H]1C	–	–	–	–	–	–	–	–	–	–	–	–	–	–	–	–	inhibition (Bacillus subtilis [1]): Active; inhibition (Bacillus subtilis [2]): Active; inhibition (Bacillus subtilis [3]): Active; inhibition (Bacillus subtilis [4]): Active; inhibition (Bacillus subtilis [5]): Active
CCCCCCCCCCCCCCOP(=O)(CCN1CCC(N)C1)OC[C@H]1O[C@@H](n2ccc(=O)[nH]c2=O)[C@H](O)[C@@H]1O (some centres not stated)	6.25 (≈ 10.1 µM)	50 (≈ 81.1 µM)	3.13 (≈ 5.08 µM)	12.5 (≈ 20.3 µM)	6.25 (≈ 10.1 µM)	12.5 (≈ 20.3 µM)	3.13 (≈ 5.08 µM)	3.13 (≈ 5.08 µM)	1.56 (≈ 2.53 µM)	3.13 (≈ 5.08 µM)	6.25 (≈ 10.1 µM)	3.13 (≈ 5.08 µM)	25 (≈ 40.5 µM)	50 (≈ 81.1 µM)	6.25 (≈ 10.1 µM)	3.13 (≈ 5.08 µM)	–
CCCCCCCCCCCCCCCOP(=O)(CCN1C[C@@H](O)[C@@H](N)C1)OC[C@H]1O[C@@H](n2ccc(=O)[nH]c2=O)[C@H](O)[C@@H]1O (some centres not stated)	12.5 (≈ 19.3 µM)	> 200	6.25 (≈ 9.66 µM)	6.25 (≈ 9.66 µM)	6.25 (≈ 9.66 µM)	12.5 (≈ 19.3 µM)	12.5 (≈ 19.3 µM)	25 (≈ 38.7 µM)	6.25 (≈ 9.66 µM)	6.25 (≈ 9.66 µM)	6.25 (≈ 9.66 µM)	3.13 (≈ 4.84 µM)	25 (≈ 38.7 µM)	50 (≈ 77.3 µM)	12.5 (≈ 19.3 µM)	6.25 (≈ 9.66 µM)	–
CCCCCCCCCCCCCCCOP(=O)(CCN(CCN)CCN)OC[C@H]1O[C@@H](n2ccc(=O)[nH]c2=O)[C@H](O)[C@@H]1O (some centres not stated)	12.5 (≈ 19.3 µM)	50 (≈ 77.2 µM)	1.56 (≈ 2.41 µM)	3.13 (≈ 4.83 µM)	1.56 (≈ 2.41 µM)	6.25 (≈ 9.65 µM)	1.56 (≈ 2.41 µM)	1.56 (≈ 2.41 µM)	0.78 (≈ 1.2 µM)	1.56 (≈ 2.41 µM)	3.13 (≈ 4.83 µM)	3.13 (≈ 4.83 µM)	6.25 (≈ 9.65 µM)	100 (≈ 154 µM)	1.56 (≈ 2.41 µM)	1.56 (≈ 2.41 µM)	–
CCCCCCCCCCCCCCOP(=O)(CCN(CCN)CCN)OC[C@H]1O[C@@H](n2ccc(=O)[nH]c2=O)[C@H](O)[C@@H]1O (some centres not stated)	100 (≈ 158 µM)	12.5 (≈ 19.7 µM)	6.25 (≈ 9.86 µM)	6.25 (≈ 9.86 µM)	12.5 (≈ 19.7 µM)	25 (≈ 39.4 µM)	6.25 (≈ 9.86 µM)	3.13 (≈ 4.94 µM)	6.25 (≈ 9.86 µM)	12.5 (≈ 19.7 µM)	25 (≈ 39.4 µM)	6.25 (≈ 9.86 µM)	12.5 (≈ 19.7 µM)	100 (≈ 158 µM)	3.13 (≈ 4.94 µM)	3.13 (≈ 4.94 µM)	–
CCCCCCCCCCCCCCCOP(=O)(CCN(CCNC(=N)N)CCNC(=N)N)OC[C@H]1O[C@@H](n2ccc(=O)[nH]c2=O)[C@H](O)[C@@H]1O (some centres not stated)	25 (≈ 34.2 µM)	12.5 (≈ 17.1 µM)	3.13 (≈ 4.28 µM)	3.13 (≈ 4.28 µM)	3.13 (≈ 4.28 µM)	6.25 (≈ 8.54 µM)	6.25 (≈ 8.54 µM)	6.25 (≈ 8.54 µM)	3.13 (≈ 4.28 µM)	3.13 (≈ 4.28 µM)	6.25 (≈ 8.54 µM)	3.13 (≈ 4.28 µM)	6.25 (≈ 8.54 µM)	50 (≈ 68.3 µM)	6.25 (≈ 8.54 µM)	3.13 (≈ 4.28 µM)	–
CCCCCCCCCC(=O)N[C@@H](Cc1c[nH]c2ccccc12)C(=O)N[C@@H](CC(N)=O)C(=O)N[C@@H](CC(=O)O)C(=O)N[C@@H]1C(=O)NCC(=O)N[C@@H](CCCN)C(=O)N[C@@H](CC(=O)O)C(=O)N[C@H](C)C(=O)N[C@@H](CC(=O)O)C(=O)NCC(=O)N[C@H](CO)C(=O)N[C@@H]([C@H](C)CC(=O)O)C(=O)N[C@@H](CC(=O)c2ccccc2N)C(=O)O[C@@H]1C	–	–	–	–	–	–	–	–	–	–	–	–	–	–	–	–	Activity [16]: 500 pS
CCCCCCCCCCCCCCCCOP(=O)(CCN(CCN)CCN)OC[C@H]1O[C@@H](n2ccc(=O)[nH]c2=O)[C@H](O)[C@@H]1O (some centres not stated)	12.5 (≈ 18.9 µM)	25 (≈ 37.8 µM)	3.13 (≈ 4.73 µM)	1.56 (≈ 2.36 µM)	3.13 (≈ 4.73 µM)	6.25 (≈ 9.44 µM)	3.13 (≈ 4.73 µM)	3.13 (≈ 4.73 µM)	1.56 (≈ 2.36 µM)	3.13 (≈ 4.73 µM)	6.25 (≈ 9.44 µM)	1.56 (≈ 2.36 µM)	6.25 (≈ 9.44 µM)	50 (≈ 75.5 µM)	3.13 (≈ 4.73 µM)	3.13 (≈ 4.73 µM)	–
